Experimental data published in patent US11180510B2, “Xanthine derivatives and uses thereof as inhibitors of bromodomains of BET proteins” (Centre national de la recherche scientifique, priority 2017, dated 2021).

Assays:
BRD4(BD1) [1] = target: T1, BRD4(BD1) (Homo sapiens, UniProt O60885); experiment: HTRF assay, BRD4(BD1)/histone peptide interaction; type: binding; set-up: made in house; conditions: HTRF; triplicates; NA = IC50 > maximal concentration of compound used
Description: HTRF assays were performed in white 384 Well Small Volume™ HiBase Polystyrene Microplates (Greiner) with a total working volume of 20 μL. Compounds were dispensed, with 100 nL per well (0.5% final DMSO), from a concentration stock of 10 mM in 100% DMSO and with serial DMSO dilutions, using an Echo® 550 robot from the Access Labcyte platform (Labcyte) and based on the transfer of liquid by acoustic wave. Then, 19.5 μL of buffer is added, using a Multidrop Combi (Thermo Fisher Scientific). […] All HTRF reagents (donor and acceptor) were purchased from CisBio Bioassays and reconstituted according to the supplier protocols. The peptide was purchased from Genic Bio Synthetic. The BRD4(1) protein was produced and purified in the laboratory.
Percentage of inhibition was calculated using the following equation: % inhibition=[(compound signal)−(min signal)]/[(max signal)−(min signal)]*100, where ‘max signal’ is the signal ratio with the compound vehicle alone (DMSO) and ‘min signal’ the signal ratio without peptide.
Selectivity profiles of bromodomain inhibitors were performed as described in HTRF screen section. […] HTRF detection reagents (EPIgeneous™ Binding Domain kits) were purchased from Cisbio Bioassays and used according to supplier's protocol. GST tagged bromodomain proteins were purchased from BPS Bioscience and histone peptide from Genic Bio Synthetic.

BRD4(BD1) [2] = target: T1, BRD4(BD1); experiment: Isothermal Titration Calorimetry; type: binding; conditions: ITC; read-out: Binding affinity (Kd) to BRD4(1) by Isothermal Titration Calorimetry
Description: FIG. 1. Isothermal Titration Calorimetry (ITC) of 43c. Thermogram (top) and non-linear least squares fit model of the integrated data (bottom) at 15° C. of Brd4 (BD1) […] as a function of the molar ratio of ligand to the protein.
ITC was used to evaluate the thermodynamics parameters of the binding between BRD4 (BD1) and the selected compounds. Titrations were carried out on a MicroCal ITC200 microcalorimeter (GE Healthcare, Piscataway, N.J.). Each experiment was designed using a titrant concentration (protein in the syringe generally between 100 and 400 μM) set 10 to 15 times the analyte concentration (compound in the cell generally between 10 and 40 μM) and using 13 injections at 25° C. A first small injection (generally 0.2 μL) was included in the titration protocol in order to remove air bubbles trapped in the syringe prior titration. Raw data were scaled after setting the zero to the titration saturation heat value. Integrated raw ITC data were fitted to a one site non-linear least squares fit model using the MicroCal Origin plugin as implemented in Origin 7 (Origin Lab). Finally, ΔG and TΔS values were calculated from the fitted ΔH and KA values using the equations ΔG=−R.T.inKA and ΔG=ΔH−TΔS.

CCn1cnc2c1c(=O)[nH]c(=O)n2Cc1ccc(CNC(=O)c2ccc(Oc3ccccc3)cc2)cc1 [Compound 37a]
IC50 (BRD4(BD1) [1]): 2000 nM

CCn1cnc2c1c(=O)[nH]c(=O)n2Cc1ccc(CNS(=O)(=O)c2ccc([N+](=O)[O-])cc2)cc1 [Compound 28a]
IC50 (BRD4(BD1) [1]): 1300 nM

O=C1CCCc2cc(S(=O)(=O)NCc3ccc(C(=O)NCc4cccnc4)cc3)ccc2N1 [Compound 14b]
IC50 (BRD4(BD1) [1]): > 25000 nM

CCn1cnc2c1c(=O)[nH]c(=O)n2Cc1ccc(CNS(=O)(=O)CC2CCCC2)cc1 [Compound 21c]
IC50 (BRD4(BD1) [1]): 1400 nM

CCn1cnc2c1c(=O)[nH]c(=O)n2Cc1ccc(CNC(=O)C2CCCC(O)C2)cc1 (centres unmarked) [Compound 35a]
IC50 (BRD4(BD1) [1]): 2800 nM

CCC[C@H](N)C(=O)NCc1ccc(Cn2c(=O)[nH]c(=O)c3c2ncn3CC)cc1 [Compound 42a]
IC50 (BRD4(BD1) [1]): > 50000 nM

O=C1CCCc2cc(S(=O)(=O)N3CCC(C(=O)NCc4cccs4)CC3)ccc2N1 [Compound 11b]
IC50 (BRD4(BD1) [1]): > 50000 nM

CCn1cnc2c1c(=O)[nH]c(=O)n2Cc1ccc(CNS(=O)(=O)CC(C)C)cc1 [Compound 21a]
IC50 (BRD4(BD1) [1]): 2900 nM

O=C1CCCc2cc(S(=O)(=O)NCC3CCC(C(=O)NCCc4ccccn4)CC3)ccc2N1 (centres unmarked) [Compound 7b]
Kd (BRD4(BD1) [2]): 8800 nM | IC50 (BRD4(BD1) [1]): 19000 nM

CCC[C@@H](N)C(=O)NCc1ccc(Cn2c(=O)[nH]c(=O)c3c2ncn3CC)cc1 [Compound 40b]
IC50 (BRD4(BD1) [1]): 32000 nM

CCn1cnc2c1c(=O)[nH]c(=O)n2Cc1ccc(CNS(=O)(=O)c2cn(C)c(C)n2)cc1 [Compound 23b]
IC50 (BRD4(BD1) [1]): 1700 nM

CCn1cnc2c1c(=O)[nH]c(=O)n2Cc1ccc(CNC(=O)c2ccc(N3CCc4ccccc4C3)cc2)cc1 [Compound 34c]
IC50 (BRD4(BD1) [1]): 749 nM

CCn1cnc2c1c(=O)[nH]c(=O)n2Cc1ccc(CNC(=O)C(N)c2ccc(C)cc2)cc1 (centres unmarked) [Compound 40a]
IC50 (BRD4(BD1) [1]): 18000 nM
